# Experiments:
# B16-OVA melanoma = B16-OVA melanoma syngeneic mouse tumour model; type: in vivo
# Description: (§1) (a) Experimental design. Wildtype BMDMs were stimulated with IL-4/IL-13 with or without MAOI treatment. MAOIs (monoamine oxidase inhibitors) studied were phenelzine (Phe: 20 μM), clorgyline (Clo: 20 μM), moclobemide (Moc: 200 μM), and pirlindole (Pir: 20 μM). NT, no MAOI treatment. (b) FACS analyses of ROS levels in BMDMs. (c) FACS analyses of CD206 expression on BMDMs. (d,e) QPCR analyses of Chi313 (d) and Arg1 (e) mRNA expression in BMDMs. f-j, Studying the TAM-related cancer immunotherapy potential of MAOI treatment in a B16-OVA melanoma syngeneic mouse tumour model (n=7-8). (f) Experimental design. B6 wildtype mice were treated with clodronate liposomes (Clod) to serve as TAM-depleted experimental mice, or treated with vehicle liposomes (Veh) to serve as TAM-intact control mice. Phe, phenelzine treatment: NT, no phenelzine treatment. (g) Tumour growth. (h) Tumour volume at day 18. (i) FACS analyses of CD206 expression on TAMs of TAM-intact experimental mice. (j) FACS analyses of intracellular Granzyme B production in tumour-infiltrating CD8^+ T cells of all experimental mice. k-o, Studying the cancer therapy potential of MAOI treatment in combination with anti-PD-1 treatment in the B16-OVA melanoma and MC38 colon cancer syngeneic mouse tumour models (n=5). (k) Experimental design. Tumour-bearing mice were treated with anti-PD-1 antibody (aPD-1) or isotype control (Iso), together with or without phenelzine (Phe) treatment. NT, no Phe treatment. (l) B16-OVA tumour growth. (m) B16-OVA tumour volume at day 18. (n) MC38 tumour growth. (o) MC38 tumour volume at day 27. Representative of 3 experiments. All data are presented as the mean±SEM. ns, not significant, *P<0.05, **P<0.01, and ***P<0.001, by I-way ANOVA (b-e, h, j, m, o) or by Student's t test (i).
# Tumour-bearing mice treated with vehicle liposomes (Veh) were included as a control. The experimental design is shown in main FIG. 5F. FACS quantifications of TAMs (gated as CD45.2^+CD11b^+Ly6G^−Ly6C^−/lowF4/80^+ cells of total TIIs) are presented (n=7-8). b-f, Studying B16-OVA and MC38 tumour growth in B6 wildtype mice with or without phenelzine treatment (Phe or NT). (b) Experimental design. (c) B16-OVA tumour growth (n=10). (d) B16-OVA tumour volume at day 18. (e) MC38 tumour growth (n=6). (f) MC38 tumour volume at day 27. g-k, Studying B16-OVA and MC38 tumour growth in NSG mice with or without phenelzine treatment (Phe or NT: n=5). (g) Experimental design. (h) B16-OVA tumour growth. (i) B16-OVA tumour volume at day 18. (j) MC38 tumour growth. (k) MC38 tumour volume at day 21. Representative of 2 (a-f) and 4 (g-k) experiments.
# B16-OVA melanoma cells (1×10^6 per animal) or MC38 colon cancer cells (5×10^5 per animal) were subcutaneously (s.c.) injected into experimental mice to form solid tumours. In some experiments, mice received intraperitoneal (i.p.) injection of phenelzine (30 mg/kg/day) to block MAO-A activity. In some experiments, mice received i.p. injection of clodronate liposomes (200 μl/animal, twice per week) to deplete TAMs: mice received i.p. injection of vehicle liposomes ([…], twice per week) were included as controls. In some experiments, mice received i.p. injection of anti-mouse PD-1 antibodies (300 μg/animal, twice per week) to block PD-1: mice received i.p. injection of isotype antibodies were included as controls. During an experiment, tumour growth was monitored twice per week by measuring tumour size using a Fisherbrand™ Traceable™ digital caliper (Thermo Fisher Scientific): tumour volumes were calculated by formula 1/2×L×W^2.
# [1] = test system: wildtype BMDMs (bone marrow-derived macrophages); assay: In vitro WT BMDM IL-4/IL-13-induced polarization culture with MAOI treatment; type: cell-based, mouse; details: IL-4/IL-13-stimulated WT BMDMs, 24 h
# Description: as §1
# To generate BMDMs, BM cells were collected from femurs and tibias of Maoa WT mice and Maoa KO mice, and were cultured in C10 medium containing with 20% of L929-conditional medium in a 10-cm dish (2×10^6 cells per ml: 12 ml per dish) for 6 days. At day 6, the resulting BMDMs were collected and reseeded in a 6-well plate (1×10^6 cells per ml: 2 ml per well) in C10 medium for 24 hours, in the presence or absence of recombinant murine IL-4 (10 ng/ml) (Peprotech, 200-04) and IL-13 (10 ng/ml) (Peprotech, 200-13) to induce BMDM immunosuppressive polarization.
# In some experiments, MAOIs were added to the Maoa WT BMDM polarization culture 30 minutes prior to adding recombinant murine IL-4 and IL-13, to block MAO-A activity during BMDM polarization. MAOIs studied were phenelzine (Phe, 20 μM) (Sigma-Aldrich), clorgyline (Clo, 20 μM) (Sigma-Aldrich), moclobemide (Moc, 200 μM) (Sigma-Aldrich), and pirlindole (Pir, 20 μM) (R&D Systems). At 24 hours after IL-4/IL-13 stimulation, BMDMs were collected for analysis.
# Cells were stained with surface marker antibodies, washed with PBS, then resuspended in pre-warmed PBS (1×10^6 cells/ml/tube) containing 1 μM CM-H2DCFDA (Thermo Fisher Scientific, C6827). After 15 minutes incubation at room temperature, cells were immediately washed with cold PBS followed by flow cytometry analysis. ROS levels were measured by oxidation of the CM-H2DCFDA probes that can be read out as the fluorescence intensity at the FITC/488 channel of a flow cytometer. Single cell RNA sequencing (scRNAseq) scRNASeq was used to analyze the gene expression profiles of TIIs. B16-OVA tumours were harvested from Maoa WT and Maoa KO mice to prepare TII suspensions (10 tumours were combined for each group). TII suspensions were then sorted using a FACSAria II flow cytometer to purify immune cells (gated as DAPI-CD45.2^+ cells). Sorted TIIs were immediately delivered to the Technology Center for Genomics & Bioinformatics (TCGB) facility at UCLA for library construction and sequencing.
smiles,measurement,setting,value
NNCCc1ccccc1 [phenelzine],progression of pre-established B16-OVA solid tumours,"B16-OVA melanoma; B6 wildtype mice, phenelzine vs no treatment (FIG. 11b-d)",effectively suppressed
same,growth of B16-OVA tumours in immunodeficient NSG mice,"B16-OVA melanoma; NSG mice, phenelzine vs no treatment",did not suppress
same,CD206 expression on TAMs (FACS),B16-OVA melanoma; TAMs from phenelzine-treated TAM-intact B16-OVA tumour-bearing mice,decreased expression
same,progression of pre-established B16-OVA solid tumours,"B16-OVA melanoma; combination study with anti-PD-1 antibody or isotype control (FIG. 5k-m), level comparable to anti-PD-1 alone",significantly suppressed
same,Granzyme B production in tumour-infiltrating CD8+ T cells (FACS),B16-OVA melanoma; phenelzine-treated B16-OVA tumour-bearing mice,increased production
same,B16-OVA tumour growth,"B16-OVA melanoma; tumour prevention model, B6 wildtype mice, TAM-intact, phenelzine 30 mg/kg/day i.p.",effectively suppressed
same,B16-OVA tumour growth in TAM-depleted mice,"B16-OVA melanoma; tumour prevention model, B6 wildtype mice, TAMs depleted with clodronate liposomes, phenelzine vs no phenelzine",No tumour growth difference
same,ROS levels in BMDMs (FACS),[1]; MAOI 20 μM added 30 min before cytokines,efficiently reduced
same,Arg1 mRNA expression in BMDMs (QPCR),[1]; MAOI 20 μM,decreased expression
same,CD206 expression on BMDMs (FACS),[1]; MAOI 20 μM,decreased expression
same,Chi313 mRNA expression in BMDMs (QPCR),[1]; MAOI 20 μM,decreased expression
same,immunosuppressive polarization of BMDMs,[1]; MAOI 20 μM,suppressed

# Reference: patent US20230391871A1, “MONOAMINE OXIDASE BLOCKADE THERAPY FOR TREATING CANCER THROUGH REGULATING TUMOR ASSOCIATED MACROPHAGES (TAMS)” (THE REGENTS OF THE UNIVERSITY OF CALIFORNIA, priority 2020, published 2023)
